{"source": "paper PMC6383986", "about": "“Fragment-Based Covalent Ligand Screening Enables Rapid Discovery of Inhibitors for the RBR E3 Ubiquitin Ligase HOIP” (Journal of the American Chemical Society, 2019)", "target": "T1, HOIP RBR domain (Homo sapiens, UniProt Q96EP0)", "T1 construct": "made in house; host or cells: E. coli BL21-GOLD(DE3)", "T1 sequence (Q96EP0 697-1072)": "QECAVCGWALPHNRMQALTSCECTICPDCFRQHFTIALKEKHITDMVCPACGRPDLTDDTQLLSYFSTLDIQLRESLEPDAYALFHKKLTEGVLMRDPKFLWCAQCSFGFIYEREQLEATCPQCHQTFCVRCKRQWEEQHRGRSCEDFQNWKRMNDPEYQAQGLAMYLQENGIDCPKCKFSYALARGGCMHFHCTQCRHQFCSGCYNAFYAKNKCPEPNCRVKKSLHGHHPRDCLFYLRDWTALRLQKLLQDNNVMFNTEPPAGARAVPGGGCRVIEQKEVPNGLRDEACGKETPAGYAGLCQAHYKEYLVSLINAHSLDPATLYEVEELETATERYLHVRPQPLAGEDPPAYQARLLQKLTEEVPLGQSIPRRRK", "assay": "Fluorescence-based ubiquitin thioester transfer assay", "format": "biochemical", "conditions": "HOIP RBR prelabeled with compound; E2 UbcH7", "protocol": "overnight, and further purified by size-exclusion chromatography (Superdex 75/ÄKTA purifier).\nThe appropriate fractions were concentrated to 4 mL in a 3.5 kDa MWCO protein concentrator (Merck). The protein concentration was measured on a Nanodrop UV spectrophotometer (absorbance at 650 nm) as 19 µM and corroborated by SDS PAGE. Labelling was confirmed by protein LC-MS (Supplementary Figure S10). The labelled protein was aliquoted, flash frozen and […]\nSupplementary Figure S10. TIC traces of the deconvoluted protein masses of the M1C ubiquitin mutant (M1C Ub) and the AlexaFluor647 labelled M1C ubiquitin mutant (M1C UbA647).\nFormation of the HOIP RBR-(5) conjugate\nThe HOIP RBR domain (7.5 µM) was incubated (Eppendorf Thermomixer) with inhibitor (5) (750 µM, 1.5% DMSO) in 50 mM HEPES, 150 mM NaCl, pH 7.5 buffer at 600 rpm, 23 °C for 18 h. […] The protein concentration was measured on Nanodrop UV spectrophotometer (absorbance at 280 nm), and the protein was flash frozen in liquid nitrogen […]\n(10 min), HOIP RBR or HOIP-RBR-(5) conjugate (5 min), C-terminally His6-tagged ubiquitin (10 min). […] The aliquots were analyzed by SDS PAGE and the gels scanned at 700 nm (LICOR Odyssey CLx) using auto-adjustment of the fluorescence intensity, then stained with Coomassie (Figure 4B and Supplementary Figure S11). […]", "note": "“Also recorded” adds a separate entry of the source.", "data": [{"smiles": "COC(=O)/C=C/CNC(=O)c1cc2c([nH]c1=O)CCC2", "note": "[Compound 5]", "values": [{"measurement": "formation of E3~Ub thioester / loading of ubiquitin onto HOIP RBR", "result": "inhibits formation of the E3∼Ub thioester intermediate; also recorded: effectively prevented the loading of ubiquitin onto the E3"}]}]}
